From patent US20250205344A1, “2,4-DIOXOTETRAHYDROPYRIMIDINYL DERATIVES AS DEGRONS IN PROTACS” (GLAXOSMITHKLINE INTELLECTUAL PROPERTY DEVELOPMENT LIMITED, priority 2022, published 2025)

Columns and labels:
RIPK2 = target: T1, RIPK2 (Homo sapiens, UniProt O43353); test: RIPK2 Degradation Assay (Nano-Glo HiBiT); type: cell-based; details: HiBiT-tagged RIPK2 in HEK 293 cells, 18 h
T1 construct: the RIPK2 gene was modified, using CRISPR/Cas9 editing, so the expressed RIPK2 protein included an 11 amino acid HiBiT tag; endogenous in cells; host or cells: clonal HEK 293-derived line, RIPK2 gene edited by CRISPR/Cas9 (heterozygous)
T1 sequence (O43353 whole entry): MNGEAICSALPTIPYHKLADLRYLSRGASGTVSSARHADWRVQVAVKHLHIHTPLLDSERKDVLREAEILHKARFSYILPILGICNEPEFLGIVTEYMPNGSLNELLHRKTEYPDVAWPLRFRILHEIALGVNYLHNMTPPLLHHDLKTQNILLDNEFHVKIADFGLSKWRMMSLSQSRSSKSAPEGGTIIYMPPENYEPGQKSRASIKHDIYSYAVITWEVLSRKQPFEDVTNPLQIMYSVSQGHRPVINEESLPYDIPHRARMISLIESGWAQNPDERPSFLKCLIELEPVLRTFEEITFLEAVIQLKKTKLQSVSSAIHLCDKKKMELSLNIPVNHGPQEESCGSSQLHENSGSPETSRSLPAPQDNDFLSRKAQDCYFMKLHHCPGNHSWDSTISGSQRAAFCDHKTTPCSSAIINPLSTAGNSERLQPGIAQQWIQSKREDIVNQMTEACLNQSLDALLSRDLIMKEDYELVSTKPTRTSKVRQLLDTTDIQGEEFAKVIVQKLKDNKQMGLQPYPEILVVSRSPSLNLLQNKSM
Description: Degradation of RIPK2 protein in human embryonic kidney (HEK 293) cells treated with PROTACs was quantified using the Nano-Glo® HiBiT Lytic Detection System (Promega) in 384 well assay plate format. A clonal HEK 293 derived cell line was first established in which the RIPK2 gene was modified, using CRISPR/Cas9 editing, so the expressed RIPK2 protein included an 11 amino acid HiBiT tag at it's amino-terminus. The cell lines were heterozygotic for the HiBIT modification. Cells were cryopreserved in aliquots in 90% foetal bovine serum (FBS), 10% DMSO and stored at −150° C. 10 mM DMSO stock solutions of PROTACs were prepared and diluted across an 11 concentration, 3 fold increment range, and 25 nL dispensed into a white opaque bottomed 384 well assay plate (Thermofisher) using an acoustic ECHO dispenser (Labcyte). For the assay, a cryopreserved vials of cells was rapidly thawed and suspended in 30 mL of assay medium (FluoroBrite™ DMEM supplemented with 10% heat inactivated FBS, penicillin 50 U/mL and streptomycin 50 ug/mL (Thermofisher)). The cell suspension was centrifuged at 400 g for 5 min and the pellet resuspended in assay medium. 25 μL of cell suspension containing 10,000 cells was dispensed into each well of the assay plate containing the test compounds, which was then incubated for 18 h at 37° C./5% CO2. Control wells were included on each assay plate, with assay medium without cells being the no RIPK2 remaining 100% effect control, and cells treated with DMSO vehicle only, without PROTAC, the 0% effect control. 25 μL of Nano-Glo® HiBiT lysis buffer supplemented with LgBiT protein and Nano-Glo® substrate (Promega) was added to each well and the plate shaken at 500 rpm for 10 min at room temperature. The intensity of luminescence was measured using a PHERAstar microplate reader (BMG Labtech) and the % RIPK2 protein remaining in each well calculated by normalising the raw luminescence value to the above control wells. Parameters corresponding to the potency and efficacy estimates of the PROTACs were obtained from these normalised luminescence values using software (IDBS ActivityBase). These included the DC50 and the Dmax estimates. Two versions of the DC50, called relative DC50 and absolute DC50, were typically generated. These are the inflection point of a fitted 4 parameter sigmoidal response curve and the interpolated concentration of PROTAC corresponding to 50% of the protein being degraded, respectively. The Dmax parameter was the maximum experimentally observed degradation and the asymptote max parameter the fitted response curve asymptote maximum.

[1] = target: T2, IRAK4 (Interleukin 1 Receptor Associated Kinase 4) (Homo sapiens, UniProt Q9NWZ3); test: IRAK4 Degradation Assay (Nano-Glo HiBiT); type: cell-based; details: HiBiT-tagged IRAK4 in HeLa cells, 18 h
T2 construct: the IRAK4 gene was modified, using CRISPR/Cas9 editing, so the expressed IRAK4 protein included an 11 amino acid HiBiT tag; endogenous in cells; host or cells: clonal HeLa line, IRAK4 gene edited by CRISPR/Cas9 (heterozygous)
T2 sequence (Q9NWZ3 1-460): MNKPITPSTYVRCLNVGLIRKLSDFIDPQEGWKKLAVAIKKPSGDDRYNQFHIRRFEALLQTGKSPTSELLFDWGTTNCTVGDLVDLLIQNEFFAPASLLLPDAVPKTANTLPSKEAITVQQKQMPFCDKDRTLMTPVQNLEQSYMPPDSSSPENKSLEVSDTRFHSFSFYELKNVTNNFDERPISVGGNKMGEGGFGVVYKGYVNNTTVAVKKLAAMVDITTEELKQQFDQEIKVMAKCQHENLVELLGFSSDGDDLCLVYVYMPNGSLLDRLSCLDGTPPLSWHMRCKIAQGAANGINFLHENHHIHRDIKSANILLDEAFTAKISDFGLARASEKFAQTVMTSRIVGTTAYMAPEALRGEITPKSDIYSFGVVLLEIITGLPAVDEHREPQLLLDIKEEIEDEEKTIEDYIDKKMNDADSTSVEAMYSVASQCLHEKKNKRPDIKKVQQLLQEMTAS
Description: Degradation of IRAK4 (Interleukin 1 Receptor Associated Kinase 4) protein in Hela cells treated with PROTACs was quantified using the Nano-Glo® HiBiT Lytic Detection System (Promega) in 384 well assay plate format. A clonal HeLa cell line was first established in which the IRAK4 gene was modified, using CRISPR/Cas9 editing, so the expressed IRAK4 protein included an 11 amino acid HiBiT tag at it's amino-terminus. The cell lines were heterozygotic for the HiBiT modification. Cells were cryopreserved in aliquots in 90% foetal bovine serum (FBS), 10% DMSO and stored at −150° C. 10 mM DMSO stock solutions of PROTACs were prepared and diluted across an 11 concentration, 3 fold increment range, and 25 nL dispensed into a white opaque bottomed 384 well assay plate (Thermofisher) using an acoustic ECHO dispenser (Labcyte). […] The intensity of luminescence was measured using a PHERAstar microplate reader (BMG Labtech) and the % IRAK4 protein remaining in each well calculated by normalising the raw luminescence value to the above control wells. Parameters corresponding to the potency and efficacy estimates of the PROTACs were obtained from these normalised luminescence values using software (IDBS ActivityBase). […]

Mean asymptote max (%) (RIPK2)	mean relative pDC50 (RIPK2)	mean asymptote max [1] [%]	mean relative pDC50 [1]	Structure (SMILES)
92	8.3	–	–	CC(C)n1ccc2c(N3CCC(=O)NC3=O)cc(C(=O)NCCOCCOCCOc3cc4nccc(Nc5ccc6scnc6c5)c4cc3S(=O)(=O)C(C)(C)C)cc21 [Example R3, N-(2-(2-(2-((4-(Benzo[d]thiazol-5-ylamino)-6-(tert-butylsulfonyl)quinolin-7-yl)oxy)ethoxy)ethoxy)ethyl)-4-(2,4-dioxotetrahydropyrimidin-1(2H)-yl)-1-isopropyl-1H-indole-6-carboxamide]
88	8.5	–	–	CC(C)(C)S(=O)(=O)c1cc2c(Nc3ccc4scnc4c3)ccnc2cc1OCCCN1CCC(c2cnc(C(=O)N3CCC(n4ccc5c(N6CCC(=O)NC6=O)cccc54)CC3)cn2)CC1.O=CO [Example R2, 1-(1-(1-(5-(1-(3-((4-(Benzo[d]thiazol-5-ylamino)-6-(tert-butylsulfonyl)quinolin-7-yl)oxy)propyl)piperidin-4-yl)pyrazine-2-carbonyl)piperidin-4-yl)-1H-indol-4-yl)dihydropyrimidine-2,4(1H,3H)-dione formate]
96	8.5	–	–	CC(C)(C)S(=O)(=O)c1cc2c(Nc3ccc4scnc4c3)ccnc2cc1OCCCCCCCC(=O)N1CCC(n2ccc3c(N4CCC(=O)NC4=O)cccc32)CC1 [Example R1, 1-(1-(1-(8-((4-(Benzo[d]thiazol-5-ylamino)-6-(tert-butylsulfonyl)quinolin-7-yl)oxy)octanoyl)piperidin-4-yl)-1H-indol-4-yl)dihydropyrimidine-2,4(1H,3H)-dione]
–	–	96	8.1	CC(C)n1ccc2c(N3CCC(=O)NC3=O)cc(C(=O)NCCOCCOCCN(C)C(=O)c3ccc(-n4cc(NC(=O)c5coc(-c6ccnc(NCC7CC7)c6)n5)c(C(F)F)n4)cc3)cc21 [Example I1, 2-(2-((Cyclopropylmethyl)amino)pyridin-4-yl)-N-(3-(difluoromethyl)-1-(4-((2-(2-(2-(4-(2,4-dioxotetrahydropyrimidin-1(2H)-yl)-1-isopropyl-1H-indole-6-carboxamido)ethoxy)ethoxy)ethyl)(methyl)carbamoyl)phenyl)-1H-pyrazol-4-yl)oxazole-4-carboxamide]
